Assay results from US11685744B2, “CDK inhibitors and their use as pharmaceuticals” (Prelude Therapeutics, Incorporated, priority 2020, dated 2023).
Like-named read-outs stand apart in the source and are kept apart here.

Key:
CDK6/Cyclin D1 = CDK6/Cyclin D1 (Homo sapiens (Human), UniProt Q00534); test: CDK6/CyclinD1 enzymatic activity assay (TR-FRET); assay type: biochemical; conditions: ATP 250 μM, read-out: CDK6_D1 IC50
Method: CDK6/CyclinD1 Enzymatic Activity Assay
(§1) The inhibitory activity of compounds was evaluated in vitro using TR-FRET assay with white 384-well low volume microplate (Greiner Bio-One). CDK6/Cyclin D1 catalyzed phosphorylation of peptide in the presence and absence of compounds was measured and used in IC50 determination. Recombinant protein complex CDK6/Cyclin D1, expressed from insect cell, was purchased from ProQinase. Testing compounds were dissolved in DMSO at 0.1 mM and tested in 9-dose IC50 mode. The reaction mixture was prepared by mixing CDK6/Cyclin D1 (1 nM final), ULight-4E-BP1 (100 nM final, Perkinelmer, TRF0128-D), and ATP (250 μM final) in assay buffer (20 mM of HEPES pH 7.4, 1 mM of EGTA, 0.05% BSA, 0.005% Tween 20, and 1 mM TCEP). The compound of interest in DMSO was added to each well in 3-fold serial dilution by dispenser (TECAN D300E). After 20 minutes preincubation at room temperature, 0.1 μL MgCl2 (10 mM final) was added to initiate the reaction. Following a 60 minutes incubation at 37° C., the reaction was stopped by addition of 2 μL of quenching buffer consisting of Lance detection buffer (Perkinelmer CR97-100C), 2 nM LANCE Ultra Europium-anti-P-4E-BP1 (Perkinelmer, TRF0216-D), 10 mM EDTA, and incubate at room temperature for additional 60 minutes in dark. The reaction signal was measured by Envision multimode plate reader (PerkinElmer, 2102-0010). IC50 values were determined by fitting the data to the standard 4 parameters with Hill Slope using GraphPad Prism software.

[1] = tested on: MCF7 adenocarcinoma cell line; test: Cell proliferation studies in MCF7 cells (ATP-Lite, 10 days); assay type: cell-based; conditions: read-out: PROLIFERATION_CTG_MCF7 IC50
Method: Cell Proliferation Studies in MCF7 Cells
Cell proliferation studies were conducted in MCF7 adenocarcinoma cell line. Cells were maintained in DMEM (Coming, Catalog #: 10-013-CV) supplemented with 10% v/v FBS (Gibco, Catalog #: 26140-079), 1% v/v Penicillin Streptomycin (Gibco, Catalog #15140-122) Cells were seeded in 384-well plates at a density of 100 or 200 cells/well. Compounds dissolved in DMSO were plated in quadruplicate using a digital dispenser (D300E, Tecan) and tested on a 9-point 3-fold serial dilution. Cells were incubated for 10 days in a 37° C. active humidified incubator at 5% CO2. A media exchange and second compound addition were performed on day 5. Cell viability was measured using the ATP-Lite 1-Step Luminescence reagent (Perkin Elmer, Catalog #: 6016731) as per manufacturer's instructions. Luminescence signal was measured with a multimode plate reader (Envision 2105, Perkin Elmer). Raw data files were imported to Dotmatics Screening Ultra for IC50 analysis. Luminescence values were normalized to both background and DMSO controls to obtain a percentage of viable cells relative to DMSO vehicle control.

CDK4/Cyclin D1 = CDK4/Cyclin D1 (Homo sapiens (Human), UniProt P11802); test: CDK4/CyclinD1 enzymatic activity assay (TR-FRET); assay type: biochemical; conditions: ATP 2 mM, read-out: CDK4_D1 IC50
CDK4/Cyclin D1, sequence (P11802 whole entry): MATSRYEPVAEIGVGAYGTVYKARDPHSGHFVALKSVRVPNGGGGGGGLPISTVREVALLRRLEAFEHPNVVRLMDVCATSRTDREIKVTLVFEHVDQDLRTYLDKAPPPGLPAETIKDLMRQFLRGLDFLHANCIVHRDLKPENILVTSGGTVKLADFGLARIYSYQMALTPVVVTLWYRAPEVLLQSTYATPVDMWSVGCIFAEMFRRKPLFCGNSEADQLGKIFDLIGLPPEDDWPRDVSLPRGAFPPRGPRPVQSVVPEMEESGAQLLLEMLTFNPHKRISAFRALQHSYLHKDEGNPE
CDK4/Cyclin D1, sequence (P24385 whole entry partner): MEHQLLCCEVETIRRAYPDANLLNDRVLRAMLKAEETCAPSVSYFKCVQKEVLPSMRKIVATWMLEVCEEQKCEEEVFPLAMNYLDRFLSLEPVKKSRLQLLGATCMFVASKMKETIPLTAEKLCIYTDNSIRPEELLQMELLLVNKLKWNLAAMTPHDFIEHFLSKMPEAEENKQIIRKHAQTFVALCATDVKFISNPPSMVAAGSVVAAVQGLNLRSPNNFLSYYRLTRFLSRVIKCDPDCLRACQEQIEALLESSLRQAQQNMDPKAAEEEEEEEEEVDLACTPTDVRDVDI
Method: CDK4/CyclinD1 Enzymatic Activity Assay
as §1, with “Bio-One). CDK4/Cyclin” for “Bio-One). CDK6/Cyclin”, “was measured.” for “was measured and used in”, “complex CDK4/Cyclin” for “complex CDK6/Cyclin”, “mixing CDK4/CyclinD1” for “mixing CDK6/Cyclin D1”, “ATP (2 mM” for “ATP (250 μM”, “temperature,” for “temperature, 0.1 μL”

CDK6/Cyclin D1, sequence (Q00534 whole entry): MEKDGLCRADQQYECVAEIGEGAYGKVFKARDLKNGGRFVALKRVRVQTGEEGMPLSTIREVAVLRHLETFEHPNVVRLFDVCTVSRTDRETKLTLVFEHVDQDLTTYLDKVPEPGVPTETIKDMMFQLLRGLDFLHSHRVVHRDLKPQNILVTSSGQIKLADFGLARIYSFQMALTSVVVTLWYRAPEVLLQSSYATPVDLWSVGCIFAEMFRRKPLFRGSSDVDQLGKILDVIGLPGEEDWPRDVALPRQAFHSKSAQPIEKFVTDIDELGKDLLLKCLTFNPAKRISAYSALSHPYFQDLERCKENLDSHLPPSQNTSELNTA
CDK6/Cyclin D1, sequence (P24385 whole entry partner): as the sequence (P24385 whole entry partner) above

Compound	IC50 (CDK6/Cyclin D1)	IC50 [1]	IC50 (CDK4/Cyclin D1)	IC50 ([1]; Homo sapiens, 240 h)
4-(2,6-Dimethyl-3-propan-2-ylthieno[2,3-d]imidazol-5-yl)-N-[5-(4-ethyl-6,6-difluoro-1,4-diazepan-1-yl)pyridin-2-yl]-5-fluoropyrimidin-2-amine [Example 68]	≤ 20 nM	20 to 200 nM		
CCN1CCN(c2ccc(Nc3ncc(F)c(-c4cc5nccc(C(C)(C)O)c5s4)n3)nc2)CC1 [Example 17, 2-[2-[2-[[5-(4-Ethylpiperazin-1-yl)pyridin-2-yl]amino]-5-fluoropyrimidin-4-yl]thieno[3,2-b]pyridin-7-yl]propan-2-ol]	20 to 200 nM		≤ 20 nM	20 to 200 nM
CN1CCC(c2ccc(Nc3ncc(F)c(-c4cc5c(C6CCCC6)ccnc5s4)n3)nc2)CC1 [Example 43, 4-(4-Cyclopentylthieno[2,3-b]pyridin-2-yl)-5-fluoro-N-(5-(1-methylpiperidin-4-yl)pyridin-2-yl)pyrimidin-2-amine]			20 to 200 nM	200 to 2000 nM
Fc1cnc(Nc2ccc(N3CCNCC3)cn2)nc1-c1cc2c(C3CCCC3)ccnc2s1 [Example 46, 4-(4-Cyclopentylthieno[2,3-b]pyridin-2-yl)-5-fluoro-N-(5-piperazin-1-ylpyridin-2-yl)pyrimidin-2-amine]			20 to 200 nM	200 to 2000 nM
Cc1c(-c2nc(Nc3ccc(N4CCN(C)CC4)cn3)ncc2F)sc2c(C3CCCC3)nccc12 [Example 48, 4-(7-Cyclopentyl-3-methylthieno[2,3-c]pyridin-2-yl)-5-fluoro-N-(5-(4-methylpiperazin-1-yl)pyridin-2-yl)pyrimidin-2-amine]			200 to 2000 nM	200 to 2000 nM
Cc1c(-c2nc(Nc3ccc(C4CCN(C)CC4)cn3)ncc2F)sc2c(C3CCCC3)ncnc12 [Example 49, 4-(4-Cyclopentyl-7-methylthieno[3,2-d]pyrimidin-6-yl)-5-fluoro-N-(5-(1-methylpiperidin-4-yl)pyridin-2-yl)pyrimidin-2-amine]			200 to 2000 nM	200 to 2000 nM
CCN1CC2(C1)CN(c1ccc(Nc3ncc(F)c(-c4sc5c(C(C)C)nn(C)c(=O)c5c4C)n3)nc1)C2 [Example 63, 2-(2-((5-(6-Ethyl-2,6-diazaspiro[3.3]heptan-2-yl)pyridin-2-yl)amino)-5-fluoropyrimidin-4-yl)-7-isopropyl-3,5-dimethylthieno[2,3-d]pyridazin-4(5H)-one]			20 to 200 nM	200 to 2000 nM
Cc1c(-c2nc(Nc3ccccn3)ncc2F)sc2c1nc(C)n2C(C)C [Example 66, 4-(2,6-Dimethyl-3-propan-2-ylthieno[2,3-d]imidazol-5-yl)-5-fluoro-N-pyridin-2-ylpyrimidin-2-amine]	20 to 200 nM		20 to 200 nM	
Cc1c(-c2nc(Nc3ccc(N4CCN5CCC4CC5)cn3)ncc2F)sc2c(C(C)C)cn(C)c(=O)c12 [Example 83, 2-(2-((5-(1,4-Diazabicyclo[3,2.2]nonan-4-yl)pyridin-2-yl)amino)-5-fluoropyrimidin-4-yl)-7-isopropyl-3,5-dimethylthieno[3,2-c]pyridin-4(5H)-one]			≤ 20 nM	20 to 200 nM
CC(C)c1cn(C)c(=O)c2cc(-c3ccnc(Nc4ccc(C5CCN(C)CC5)cn4)n3)sc12 [Example 96, 7-Isopropyl-5-methyl-2-(2-((5-(1-methylpiperidin-4-yl)pyridine-2-yl)amino)pyrimidin-4-yl)thieno[3,2-c]pyridin-4(5H)-one]			20 to 200 nM	200 to 2000 nM
CCN1CCN(Cc2ccc(Nc3ncc(F)c(-c4sc5c(C(C)C)[nH]nc5c4C)n3)nc2)CC1 [Example 100, N-(5-((4-Ethylpiperazin-1-yl)methyl)pyridin-2-yl)-5-fluoro-4-(3-isopropyl-6-methyl-2H-thieno[3,2-c]pyrazol-5-yl)pyrimidin-2-amine]			20 to 200 nM	200 to 2000 nM
CCN1CC2(C1)CN(c1ccc(Nc3ncc(F)c(-c4sc5c(C(C)(C)OC)n(C)nc5c4C)n3)nc1)C2 [Example 105, N-(5-(6-Ethyl-2,6-diazaspiro[3.3]heptan-2-yl)pyridin-2-yl)-5-fluoro-4-(3-(2-methoxypropan-2-yl)-2,6-dimethyl-2H-thieno[3,2-c]pyrazol-5-yl)pyrimidin-2-amine]			≤ 20 nM	20 to 200 nM
Cc1c(-c2nc(Nc3ccc(C4CN(C)CCO4)cn3)ncc2F)sc2c1nc(C)n2C(C)C (stereo not shown) [Example 115, 5-Fluoro-4-(3-isopropyl-2,6-dimethyl-3H-thieno[2,3-d]imidazol-5-yl)-N-(5-(4-methylmorpholin-2-yl)pyridin-2-yl)pyrimidin-2-amine]		20 to 200 nM	≤ 20 nM	

Other lines, results leading:

IC50 (CDK6/Cyclin D1)	IC50 [1]	IC50 (CDK4/Cyclin D1)	IC50 ([1]; Homo sapiens, 240 h)	Compound
≤ 20 nM	20 to 200 nM	≤ 20 nM		Cc1c(-c2nc(Nc3ccc(C4CCCN(C)C4)cn3)ncc2F)sc2c1ncn2C(C)C (single isomer, unassigned) [Example 126, 5-Fluoro-N-[5-[-1-methylpiperidin-3-yl]pyridin-2-yl]-4-(6-methyl-3-propan-2-ylthieno[2,3-d]imidazol-5-yl)pyrimidin-2-amine]
		20 to 200 nM	200 to 2000 nM	CCN1CCN(c2ccc(Nc3ncc(F)c(-c4cc5c(C6CCCC6)ccnc5s4)n3)nc2)CC1 [Example 44, 4-(4-Cyclopentylthieno[2,3-b]pyridin-2-yl)-N-[5-(4-ethylpiperazin-1-yl)pyridin-2-yl]-5-fluoropyrimidin-2-amine]
		20 to 200 nM	200 to 2000 nM	CN1CCN(c2ccc(Nc3ncc(F)c(-c4cc5c(C6CCCC6)ccnc5s4)n3)nc2)CC1 [Example 45, 4-(4-Cyclopentylthieno[2,3-b]pyridin-2-yl)-5-fluoro-N-[5-(4-methylpiperazin-1-yl)pyridin-2-yl]pyrimidin-2-amine]
		20 to 200 nM	200 to 2000 nM	CCN1CC2(C1)CN(c1ccc(Nc3ncc(F)c(-c4cc5c(C6CCCC6)ccnc5s4)n3)nc1)C2 [Example 47, 4-(4-Cyclopentylthieno[2,3-b]pyridin-2-yl)-N-[5-(6-ethyl-2,6-diazaspiro[3.3]heptan-2-yl)pyridin-2-yl]-5-fluoropyrimidin-2-amine]
		≤ 20 nM	20 to 200 nM	Cc1c(-c2nc(Nc3ccc(C4CC[N+](C)([O-])CC4)cn3)ncc2F)sc2c(C(C)C)cn(C)c(=O)c12 (stereo not shown) [Example 98, 4-(6-((5-Fluoro-4-(7-isopropyl-3,5-dimethyl-4-oxo-4,5-dihydrothieno[3,2-c]pyridin-2-yl)pyrimidin-2-yl)amino)pyridin-3-yl)-1-methylpiperidine 1-oxide]
		20 to 200 nM	20 to 200 nM	CCN1CC2(C1)CN(c1ccc(Nc3ncc(F)c(-c4sc5c(nc(N(C)C)n5C(C)C)c4C)n3)nc1)C2 [Example 111, 5-(2-((5-(6-Ethyl-2,6-diazaspiro[3.3]heptan-2-yl)pyridin-2-yl)amino)-5-fluoropyrimidin-4-yl)-3-isopropyl-N,N,6-trimethyl-3H-thieno[2,3-d]imidazol-2-amine]
